The record followed here is publication PMC4148444, “P. aeruginosa SGNH Hydrolase-Like Proteins AlgJ and AlgX Have Similar Topology but Separate and Distinct Roles in Alginate Acetylation” (PLoS Pathogens, 2014).

The test system of data set [1] is CC(=O)Oc1ccc2cc(C(=O)O)c(=O)oc2c1. The experiment in a line: fluorescence acetylesterase assay. The data set is classed as biochemical, Pseudomonas putida. The following applies: 50 mM sodium HEPES pH 7.0, 298 K, up to 10% DMSO, kcat given as (×10^3 s^-1), kcat/Km implies ×10^-3, 25.0 °C. The text has this:
fluorescence acetylesterase assay on PpAlgJ75–370

Data set [2] addresses T1, PaAlgJ79–379 (Pseudomonas aeruginosa, UniProt Q51393).
T1 construct: gene algJ; soluble periplasmic domain 79-379 without TM helix 12-29; N-terminal His6 thrombin-cleaved; expressed in E. coli BL21-CodonPlus; monomer by SEC
As to the kind of experiment: direct ESI-MS binding assay. The following applies: 50 mM ammonium acetate, pH 7, 298 K; only folded (low charge state) fraction used, its concentration not accurately known; read-out: Apparent K a (M^-1) AlgJ. An excerpt: direct ESI-MS binding assay on PaAlgJ79–379

In data set [3] the target is T2, PaAlgX27–474 (Pseudomonas aeruginosa, UniProt Q51372).
T2 construct: gene algX; residues 27-474 (mature protein, SGNH hydrolase-like domain plus C-terminal CBM)
The experiment in a line: direct ESI-MS binding assay. The following applies: 50 mM ammonium acetate, pH 7, 298 K; corrected for nonspecific binding; site (active site or CBM) not resolved; read-out: Apparent K a (M^-1) AlgX. The text has this: direct ESI-MS binding assay on PaAlgX27–474

Data set [4] concerns CC(=O)Oc1ccc2cc(C(=O)O)c(=O)oc2c1. The experiment in a line: purified protein. The following applies: up to 10% DMSO, kcat given as (×10^3 s^-1), kcat/Km implies ×10^-3, 25.0 °C.
Setting [5] is: 50 mM sodium HEPES pH 7.0, 298 K.
The mark [6] stands for this setting: 50 mM sodium HEPES pH 8.0, 298 K.

Where only a bound is given, the exact number is not on record here.

As usually defined, the Km is the concentration of substrate that gives half-maximal velocity. What is called kcat/Km is the second-order rate constant that governs catalysis at low substrate concentration.

T2 sequence (Q51372 27-474): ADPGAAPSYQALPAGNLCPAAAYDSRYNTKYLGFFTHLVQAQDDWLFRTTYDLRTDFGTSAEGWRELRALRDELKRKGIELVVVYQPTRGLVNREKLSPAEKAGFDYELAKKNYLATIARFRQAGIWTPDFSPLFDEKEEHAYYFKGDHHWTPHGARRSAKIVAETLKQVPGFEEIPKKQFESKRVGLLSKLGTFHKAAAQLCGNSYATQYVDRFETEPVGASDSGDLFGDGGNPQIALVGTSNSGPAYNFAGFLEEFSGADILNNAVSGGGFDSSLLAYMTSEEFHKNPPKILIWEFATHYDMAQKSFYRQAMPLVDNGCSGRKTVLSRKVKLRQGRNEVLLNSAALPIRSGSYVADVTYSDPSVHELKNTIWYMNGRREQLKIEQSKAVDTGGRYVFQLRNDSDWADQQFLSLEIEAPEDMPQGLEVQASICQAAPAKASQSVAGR
T1 sequence (Q51393 79-379): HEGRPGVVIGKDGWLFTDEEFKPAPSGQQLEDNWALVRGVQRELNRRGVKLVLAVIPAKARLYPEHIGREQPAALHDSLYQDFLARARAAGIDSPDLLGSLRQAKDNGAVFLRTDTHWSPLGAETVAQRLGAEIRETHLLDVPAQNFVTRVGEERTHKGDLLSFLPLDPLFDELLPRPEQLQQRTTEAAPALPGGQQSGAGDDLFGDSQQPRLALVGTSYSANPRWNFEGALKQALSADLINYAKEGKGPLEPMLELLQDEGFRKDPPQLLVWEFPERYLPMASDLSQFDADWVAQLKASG

With “PpAlgJ75–370 (Pseudomonas putida KT2440)”, in data set [1], the Km worked out at 2300 ± 96.3 µM, the kcat is recorded as 7.80±0.155 ×10^-3 s^-1 and the kcat/Km is 3.39 ± 0.0688 M⁻¹ s⁻¹.

For `O=C(O)C1OC(OC2C(C(=O)O)OC(OC3C(C(=O)O)OC(OC4C(C(=O)O)OC(OC5C(C(=O)O)OC(O)C(O)C5O)C(O)C4O)C(O)C3O)C(O)C2O)C(O)C(O)C1O` (stereo not shown) [ManA5], the Kd in data set [2] is above 2000 µM; in data set [3] it was 1000 µM.

As for ManA8, the Kd in data set [3] worked out at 172 µM.

For “PaAlgJ79–379 (Pseudomonas aeruginosa PAO1)”, in data set [4] (setting [5]), the Michaelis-Menten constant (Km) worked out at 1160 ± 120 µM, the kcat is given as 3.44±0.129 ×10^-3 s^-1 and the kcat/Km worked out at 2.96 ± 0.324 M⁻¹ s⁻¹.

On to ManA7, for which the Kd in data set [2] is above 2000 µM; in data set [3], 208 µM.

With `O=C(O)C1OC(OC2C(C(=O)O)OC(OC3C(C(=O)O)OC(OC4C(C(=O)O)OC(O)C(O)C4O)C(O)C3O)C(O)C2O)C(O)C(O)C1O` (stereo not shown) [ManA4], the Kd in data set [2] is above 2000 µM; in data set [3], 1000 µM.

For ManA12, the Kd in data set [3] was found to be 52.6 µM.

With ManA9, the Kd in data set [3] stood at 114 µM.

On to ManA10, for which the Kd in data set [3] stood at 100 µM.

Regarding ManA11, the Kd in data set [3] worked out at 62.5 µM.

Turning to `CCCO[C@@H]1O[C@H](C(=O)O)[C@@H](O[C@@H]2O[C@H](C(=O)O)[C@@H](O[C@@H]3O[C@H](C(=O)O)[C@@H](O[C@@H]4O[C@H](C(=O)O)[C@@H](O[C@@H]5O[C@H](C(=O)O)[C@@H](O[C@@H]6O[C@H](C(=O)O)[C@@H](O)[C@H](O)[C@@H]6O)[C@H](O)[C@@H]5O)[C@H](O)[C@@H]4O)[C@H](O)[C@@H]3O)[C@H](O)[C@@H]2O)[C@H](O)[C@@H]1O` [ManA6], the Kd in data set [2] is above 2000 µM; in data set [3], 312 µM.

On to “PaAlgX27–474 (Pseudomonas aeruginosa PAO1)”, for which, in data set [4] (setting [6]), the Km was 1100 ± 96 µM, the kcat is given as 11.4±0.343 ×10^-3 s^-1 and the kcat/Km is 10.3 ± 0.961 M⁻¹ s⁻¹.
